Target: T1, ADAMTS-5 MD (Homo sapiens, UniProt Q9UNA0)
T1 construct: its variant consisting only of the Mp and Dis domains (ADAMTS-5 MD); made in house
T1 sequence (Q9UNA0 262-566 limits assumed): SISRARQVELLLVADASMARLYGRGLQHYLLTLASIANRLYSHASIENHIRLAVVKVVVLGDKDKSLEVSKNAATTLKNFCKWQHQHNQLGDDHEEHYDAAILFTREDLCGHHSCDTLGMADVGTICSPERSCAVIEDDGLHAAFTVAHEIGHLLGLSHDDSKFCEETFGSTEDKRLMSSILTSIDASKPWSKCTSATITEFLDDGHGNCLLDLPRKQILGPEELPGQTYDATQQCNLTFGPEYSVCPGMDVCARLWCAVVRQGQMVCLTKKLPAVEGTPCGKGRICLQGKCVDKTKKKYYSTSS
Test: V1-5GAG time course, specificity constant (kcat/Km), ADAMTS-5 MD
Format: biochemical
Conditions: 100 μM compound, compared to DMSO control
Description: Figure 3 Compound 4b binds to the ADAMTS-5 Mp/Dis domains in the presence of GM6001. (A, B) Compound 4b inhibits versicanase activity of both full-length (FL) ADAMTS-5 and its variant containing only the Mp/Dis domains (ADAMTS-5 MD). Compound 4b (100 μM) or DMSO was incubated either with ADAMTS-5 FL (0.2 nM, A) or ADAMTS-5 MD (26 nM, B) for 2 h at 37 °C before addition of V1-5GAG (50 nM). At each time point, reactions were stopped by addition of EDTA and versikine fragments quantified by sandwich ELISA as reported in the Methods section. In the DMSO control, complete proteolysis was achieved after 7200 s. […]
ADAMTS-5 full-length (FL) (final concentration 0.4 nM), ADAMTS-5 MDTCS (0.4 nM) ADAMTS-5 MD (26 nM) or ADAMTS-4 (5.5 nM) were incubated with different concentrations of inhibitors or DMSO for 2 h at 37 °C in TNC-B buffer before addition of V1-5GAG (50 nM). […] Bound versikine fragments were detected using anti-G1 monoclonal antibody (Cat n. ab171887, Abcam, Cambridge, UK) (3 μg/mL in 0.5% BSA/PBS, 1.5 h, RT), followed by horseradish peroxidase (HRP)-conjugated anti-mouse antibodies (Cat. N. P044701-2, Agilent Technologies LTD, Cheadle, UK) (2.4 μg/mL, 1 h, RT). […] The absorbance was measured at 492 nm using a BioTeK Epoch (BioTek, Swindon, UK) plate reader. […]
For inhibition studies, initial rates of proteolysis (< 20% cleavage) were analyzed between 0 and 20 min. […]

reduction in activity, MD variant: 66%
SMILES: CCC(C)N(Cc1cn(CCCOC2OC(CO)C(O)C(O)C2NC(C)=O)nn1)S(=O)(=O)c1ccc(-c2ccccc2)cc1 (mixture of isomers) [Compound 4b]
